For two molecules, Kd and IC50 results are on record in paper PMC11569205, “An allosteric inhibitor of RhoGAP class-IX myosins suppresses the metastatic features of cancer cells” (Nature Communications, 2024).

Structures are written as SMILES. Where two headings read alike, the source gives them in different places.

Test [1] concerns the target T1, Dd myosin-2 (DdMyo2) (Dictyostelium discoideum, UniProt P08799).
T1 construct: gene mhcA; motor domain
T1 sequence (P08799 2-762): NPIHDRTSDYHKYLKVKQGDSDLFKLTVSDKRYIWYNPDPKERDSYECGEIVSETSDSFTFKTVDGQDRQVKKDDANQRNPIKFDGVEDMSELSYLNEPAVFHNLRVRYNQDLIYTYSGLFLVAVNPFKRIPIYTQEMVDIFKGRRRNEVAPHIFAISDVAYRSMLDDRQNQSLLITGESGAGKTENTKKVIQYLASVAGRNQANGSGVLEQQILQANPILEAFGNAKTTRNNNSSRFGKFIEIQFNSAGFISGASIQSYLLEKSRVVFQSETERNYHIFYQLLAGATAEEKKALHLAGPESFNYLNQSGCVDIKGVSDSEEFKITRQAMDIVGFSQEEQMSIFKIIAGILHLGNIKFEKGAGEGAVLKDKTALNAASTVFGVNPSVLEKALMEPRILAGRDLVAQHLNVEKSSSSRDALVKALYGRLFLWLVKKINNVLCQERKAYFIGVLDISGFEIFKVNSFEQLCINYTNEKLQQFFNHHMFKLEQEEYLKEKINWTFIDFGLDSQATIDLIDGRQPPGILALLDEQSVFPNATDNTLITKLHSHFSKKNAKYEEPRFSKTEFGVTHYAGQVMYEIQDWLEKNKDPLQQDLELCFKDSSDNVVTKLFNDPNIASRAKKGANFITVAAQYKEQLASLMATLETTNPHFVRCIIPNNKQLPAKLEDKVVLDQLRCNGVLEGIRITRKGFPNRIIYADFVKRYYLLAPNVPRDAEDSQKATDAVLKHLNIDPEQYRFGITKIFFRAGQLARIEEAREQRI
The test can be described thus: biochemical. Also on record: binding affinity of compound to purified myosin (technique not given in the excerpts). An excerpt: (§1) Structural elements responsible for communicating conformational changes along the myosin ATPase cycle, such as the relay helix, the strut loop, and the W-helix, which form a central hub in the myosin motor domain for effective force production, flank the inhibitor binding site (Fig. 1K). The site buries a total protein surface area of 302.9 Å^2. This pocket is not visible in ligand-free DdMyo2 pre-power stroke structures and only formed by rearrangements of the side chains of residues S266 (β7-loop), E467 (relay helix), and K587 (strut) upon binding of the carbazole (Supplementary Fig. 1A). The aromatic carbazole moiety interacts primarily through hydrophobic contacts with F466 (relay helix) and V630 (W-helix), as well as cation-π interactions with K423 (O-helix) (Supplementary Fig. 1B). Four hydrogen bonds stabilize the inhibitor in its binding position: S465 (relay helix) and K587 (strut loop) interact with the hydroxy group of the ligand, and S465 (relay helix) and the main chain of E487 (relay helix) bind to the nitrogen of the carbazole framework. […] Rabbit fast skeletal muscle heavy meromyosin (skHMM) was prepared as described in ref. [129]. All other myosins were purified from native tissue or recombinant from the following organismal sources: D. discoideum (Dd), O. coniculus (Oc), S. scrofa (Ss), R. norvegicus (Rn), C. elegans (Ce), H. sapiens (Hs). Motor domain constructs of myosin-2, myosin-5a–5b, Ce myosin-9/Rn myosin-9b, were prepared as described previously in refs. [126],[130]–[135]. Hs nonmuscle myosin-2A (NM2a) was purified from SF9 cells using the baculovirus expression system as described in ref. [130] (for more information see Supplementary Table 5). F-actin was prepared according to the protocol by Lehrer and Kerwar[136].

The next test concerns the target T2, DdMyo5b (Dictyostelium discoideum, UniProt P54697).
T2 construct: gene myoJ; motor domain
The test can be described thus: biochemical. Also on record: binding affinity of compound to purified myosin (technique not given in the excerpts).
Description: as §1

For test [2], the target named is T1, Dd myosin-2 (DdMyo2). The test can be described thus: biochemical. More on the design: inhibition of myosin ATPase activity. An excerpt: (§2) We set out to identify a myosin class-IX specific inhibitor by screening an in-house compound library comprising halogenated pseudilins and carbazole derivatives, developed to target the ATPase activity of myosins[47],[48]. […] Low micromolar concentrations inhibited Myo9 motor function substantially, reducing sliding velocity and motile fraction of actin filaments in a reproducible and reversible manner (Fig. 1G, H). Importantly, the motor properties of other tested myosins remained unaffected (Fig. 1G). Rabbit fast skeletal muscle heavy meromyosin (skHMM) was prepared as described in ref. [129]. All other myosins were purified from native tissue or recombinant from the following organismal sources: D. discoideum (Dd), O. coniculus (Oc), S. scrofa (Ss), R. norvegicus (Rn), C. elegans (Ce), H. sapiens (Hs). Motor domain constructs of myosin-2, myosin-5a–5b, Ce myosin-9/Rn myosin-9b, were prepared as described previously in refs. [126],[130]–[135]. Hs nonmuscle myosin-2A (NM2a) was purified from SF9 cells using the baculovirus expression system as described in ref. [130] (for more information see Supplementary Table 5). F-actin was prepared according to the protocol by Lehrer and Kerwar[136].

Test [3] concerns the target T3, Rn myosin-9b (Myo9b) (Rattus norvegicus, UniProt Q63358).
T3 construct: motor domain construct
The test can be described thus: biochemical. Also on record: inhibition of myosin ATPase activity.
Description: as §2

Test [4] concerns the target T3, Rn myosin-9b (Myo9b). The test can be described thus: NADH-coupled basal and actin-activated ATPase assay. It counts as biochemical.
The target in another test is T4, Ce myosin-9 (Caenorhabditis elegans, UniProt F0IWT2).
T4 construct: gene hum-7; motor domain construct
The test can be described thus: NADH-coupled basal and actin-activated ATPase assay; in vitro actin motility. The test is classed as biochemical. An excerpt:
NADH-coupled basal and actin-activated ATPase assay; in vitro actin motility on Ce myosin-9 | Inhibitory effect of adhibin on Cemyosin-9 and Rnmyosin-9b basal and actin-activated ATPase activities.

T3 sequence (Q63358 2-954): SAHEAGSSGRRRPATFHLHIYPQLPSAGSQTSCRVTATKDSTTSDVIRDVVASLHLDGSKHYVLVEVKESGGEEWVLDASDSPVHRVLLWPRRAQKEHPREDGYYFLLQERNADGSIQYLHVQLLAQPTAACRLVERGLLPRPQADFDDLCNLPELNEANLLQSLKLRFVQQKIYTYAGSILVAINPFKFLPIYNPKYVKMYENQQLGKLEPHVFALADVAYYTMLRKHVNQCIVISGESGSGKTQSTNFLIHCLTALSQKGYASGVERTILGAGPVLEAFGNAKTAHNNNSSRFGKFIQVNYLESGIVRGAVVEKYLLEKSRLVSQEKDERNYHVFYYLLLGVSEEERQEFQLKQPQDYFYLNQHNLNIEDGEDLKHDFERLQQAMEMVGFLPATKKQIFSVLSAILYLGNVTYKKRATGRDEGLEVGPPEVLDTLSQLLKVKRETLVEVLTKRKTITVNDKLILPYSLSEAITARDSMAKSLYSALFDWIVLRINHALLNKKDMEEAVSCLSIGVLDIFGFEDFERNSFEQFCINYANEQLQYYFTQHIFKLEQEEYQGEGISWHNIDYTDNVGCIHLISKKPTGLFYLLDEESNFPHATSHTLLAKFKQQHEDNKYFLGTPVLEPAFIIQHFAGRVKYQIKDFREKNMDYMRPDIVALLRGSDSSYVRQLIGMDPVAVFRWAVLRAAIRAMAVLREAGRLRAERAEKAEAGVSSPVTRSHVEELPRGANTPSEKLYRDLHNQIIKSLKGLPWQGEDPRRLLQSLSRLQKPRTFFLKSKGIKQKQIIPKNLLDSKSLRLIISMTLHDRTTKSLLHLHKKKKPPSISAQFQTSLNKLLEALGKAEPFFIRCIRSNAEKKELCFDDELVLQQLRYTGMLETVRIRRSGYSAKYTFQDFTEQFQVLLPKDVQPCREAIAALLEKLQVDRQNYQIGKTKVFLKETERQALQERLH
T2 sequence (P54697 whole entry, the tested form may be a part): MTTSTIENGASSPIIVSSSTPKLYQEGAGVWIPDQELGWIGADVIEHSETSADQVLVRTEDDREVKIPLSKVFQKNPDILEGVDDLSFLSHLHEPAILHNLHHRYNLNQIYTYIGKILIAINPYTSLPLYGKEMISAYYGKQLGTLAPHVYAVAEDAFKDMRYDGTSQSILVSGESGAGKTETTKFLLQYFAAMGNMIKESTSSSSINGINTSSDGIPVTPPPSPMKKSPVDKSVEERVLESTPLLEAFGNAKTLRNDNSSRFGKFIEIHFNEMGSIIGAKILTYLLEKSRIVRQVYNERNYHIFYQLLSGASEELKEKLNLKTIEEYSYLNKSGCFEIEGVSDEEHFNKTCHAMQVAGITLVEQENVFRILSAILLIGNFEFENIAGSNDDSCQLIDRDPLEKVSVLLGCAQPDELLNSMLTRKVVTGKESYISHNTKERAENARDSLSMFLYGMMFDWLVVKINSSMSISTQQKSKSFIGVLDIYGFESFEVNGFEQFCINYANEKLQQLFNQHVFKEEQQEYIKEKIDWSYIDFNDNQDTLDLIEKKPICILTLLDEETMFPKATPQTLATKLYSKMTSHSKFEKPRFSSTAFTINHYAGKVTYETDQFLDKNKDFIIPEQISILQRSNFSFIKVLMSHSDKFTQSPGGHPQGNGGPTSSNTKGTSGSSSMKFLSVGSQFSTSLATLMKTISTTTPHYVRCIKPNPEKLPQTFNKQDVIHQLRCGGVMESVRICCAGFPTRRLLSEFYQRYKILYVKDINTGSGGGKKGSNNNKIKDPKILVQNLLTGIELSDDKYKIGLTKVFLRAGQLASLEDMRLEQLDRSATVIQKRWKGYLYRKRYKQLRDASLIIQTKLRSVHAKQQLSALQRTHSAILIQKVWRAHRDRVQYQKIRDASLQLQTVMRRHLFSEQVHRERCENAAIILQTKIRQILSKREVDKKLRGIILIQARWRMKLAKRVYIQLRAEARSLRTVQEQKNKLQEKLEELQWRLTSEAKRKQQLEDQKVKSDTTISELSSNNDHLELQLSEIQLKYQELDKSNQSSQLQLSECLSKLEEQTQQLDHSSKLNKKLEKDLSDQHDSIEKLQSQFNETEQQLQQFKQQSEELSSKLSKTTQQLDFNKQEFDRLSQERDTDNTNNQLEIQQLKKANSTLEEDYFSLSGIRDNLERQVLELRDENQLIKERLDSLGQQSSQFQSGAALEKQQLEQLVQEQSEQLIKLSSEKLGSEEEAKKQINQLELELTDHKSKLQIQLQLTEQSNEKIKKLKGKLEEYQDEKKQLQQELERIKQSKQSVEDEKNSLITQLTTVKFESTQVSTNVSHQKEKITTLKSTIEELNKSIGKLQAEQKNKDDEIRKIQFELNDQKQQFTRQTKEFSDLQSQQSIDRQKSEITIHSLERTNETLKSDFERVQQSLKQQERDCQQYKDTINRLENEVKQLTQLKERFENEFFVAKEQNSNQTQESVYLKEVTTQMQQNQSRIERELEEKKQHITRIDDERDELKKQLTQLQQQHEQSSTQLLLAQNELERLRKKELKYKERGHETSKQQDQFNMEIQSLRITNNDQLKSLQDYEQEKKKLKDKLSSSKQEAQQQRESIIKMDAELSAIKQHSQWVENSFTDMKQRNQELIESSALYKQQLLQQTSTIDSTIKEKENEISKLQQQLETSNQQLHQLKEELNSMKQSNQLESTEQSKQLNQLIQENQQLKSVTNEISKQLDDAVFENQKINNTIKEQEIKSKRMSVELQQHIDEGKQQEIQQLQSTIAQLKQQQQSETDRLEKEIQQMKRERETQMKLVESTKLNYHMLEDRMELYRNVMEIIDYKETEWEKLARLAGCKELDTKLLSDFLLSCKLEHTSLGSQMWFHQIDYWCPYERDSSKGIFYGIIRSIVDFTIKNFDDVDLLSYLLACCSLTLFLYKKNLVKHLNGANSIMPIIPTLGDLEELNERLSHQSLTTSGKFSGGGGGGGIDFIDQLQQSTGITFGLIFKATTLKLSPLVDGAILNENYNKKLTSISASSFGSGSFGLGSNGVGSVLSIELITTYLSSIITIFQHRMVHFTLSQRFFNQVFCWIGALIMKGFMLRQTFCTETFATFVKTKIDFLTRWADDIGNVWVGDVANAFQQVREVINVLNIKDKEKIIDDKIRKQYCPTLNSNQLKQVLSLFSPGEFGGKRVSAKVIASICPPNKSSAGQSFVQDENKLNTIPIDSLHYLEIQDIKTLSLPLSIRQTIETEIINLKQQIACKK
T4 sequence (F0IWT2 entry or part of it): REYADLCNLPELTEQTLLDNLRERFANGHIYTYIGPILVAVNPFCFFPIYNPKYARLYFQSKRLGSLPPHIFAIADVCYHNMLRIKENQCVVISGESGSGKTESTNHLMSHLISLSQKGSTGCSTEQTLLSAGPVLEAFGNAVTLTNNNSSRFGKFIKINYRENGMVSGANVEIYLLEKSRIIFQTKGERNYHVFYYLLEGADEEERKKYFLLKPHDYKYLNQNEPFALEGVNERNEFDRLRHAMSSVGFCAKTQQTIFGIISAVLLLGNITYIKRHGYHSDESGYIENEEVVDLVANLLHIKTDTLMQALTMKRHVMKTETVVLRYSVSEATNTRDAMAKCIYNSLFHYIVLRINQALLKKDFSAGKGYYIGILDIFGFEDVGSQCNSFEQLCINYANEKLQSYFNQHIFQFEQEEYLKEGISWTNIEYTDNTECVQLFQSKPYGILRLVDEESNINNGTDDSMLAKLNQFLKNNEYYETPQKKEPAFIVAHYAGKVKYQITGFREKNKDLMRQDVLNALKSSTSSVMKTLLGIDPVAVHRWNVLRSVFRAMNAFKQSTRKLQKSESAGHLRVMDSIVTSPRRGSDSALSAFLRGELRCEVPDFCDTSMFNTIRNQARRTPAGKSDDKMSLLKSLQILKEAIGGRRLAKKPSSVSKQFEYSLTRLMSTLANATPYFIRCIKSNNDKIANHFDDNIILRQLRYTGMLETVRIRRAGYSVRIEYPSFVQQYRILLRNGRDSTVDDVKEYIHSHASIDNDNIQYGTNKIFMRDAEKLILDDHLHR

Turning to `Cc1ccc2[nH]c3c(O)cc(Br)c(Br)c3c2c1` [compound 5, 3,4-dibromo-6-methyl-9H-carbazol-1-ol], the dissociation constant Kd at Dd myosin-2 (DdMyo2) [1] came to 7.3 ± 4.1 µM; at DdMyo5b it was 33.2 ± 5.2 µM. Further, the IC50 was found to be 22.6 ± 7.5 µM at Dd myosin-2 (DdMyo2) [2] and 2 ± 0.3 µM against Rn myosin-9b (Myo9b) [3].
`OCc1cc(Br)cc2c1[nH]c1ccc(Br)cc12` [compound 12, 3,6-dibromo-1-(hydroxymethyl)carbazole]: the 50% inhibitory concentration (IC50) came out at 2.5 ± 0.2 µM at Rn myosin-9b (Myo9b) [4], 2.6 ± 0.2 µM at Ce myosin-9 and 37.7 ± 9.4 µM on Dd myosin-2 (DdMyo2) [2] (read-out: IC50). Also, the Kd on Dd myosin-2 (DdMyo2) [1] (read-out: KD) was 14.9 ± 3.2 µM; at DdMyo5b (read-out: KD), 1.5 ± 0.5 µM.
